Results as given in article PMC5834492, “Antimycobacterial drug discovery using Mycobacteria-infected amoebae identifies anti-infectives and new molecular targets” (Scientific Reports, 2018).

How the values were obtained:
M. marinum luxCDABE = type: cell-based, Mycobacterium marinum
[1] = tested on: M. marinum in A. castellanii; type: cell-based, Mycobacterium marinum
[2] = tested on: M. marinum in BV2 microglial cells; type: cell-based, Mycobacterium marinum
Mtb H37Rv in THP-1 = tested on: Mtb H37Rv in THP-1; design: method as in Sorrentino et al, 2015; conditions: ref Sorrentino et al, 2015, cited from earlier work; for Intracelullar MIC90 in THP-1: THP1 / Mtb H37Rv infection assay; for Extracellular MIC90/ Inracellular MIC90: ratio
Mtb H37Rv = tested on: Mtb H37Rv; design: method as in Sorrentino et al, 2015; conditions: ref Sorrentino et al, 2015; cited from earlier work

Structure (SMILES) | Antibiotic assays: M. marinum luxCDABE (M. marinum luxCDABE) | Intracellular infection assays: A. castellanii / M. marinum [1] | Intracellular infection assays: BV2 / M. marinum [2] | Growth inhibition / Cytotoxicity assays: D. discoideum GFP-ABD (D. discoideum GFP-ABD) | Growth inhibition / Cytotoxicity assays: BV2 cells (BV2 cells) | Intracelullar MIC90 in THP-1 (Mtb H37Rv in THP-1) [µM] | Extracellular MIC90/ Inracellular MIC90 (Mtb H37Rv in THP-1) | Extracellular MIC90 (Mtb H37Rv) [µM]
O=C(c1[nH]nc2c1CCCC2)N1CCN(Cc2ccc3c(c2)OCO3)CC1 [SB-712970] | 0.00 | 1.13 | 1.28 | 0.79 | False | 5.55 | 0.81 | 4.5
O=C(c1cnn(C(=O)c2ccco2)c1)c1cc(F)ccc1O [GSK1310678A] | 0.00 | 0.98 | 1.17 | 1.12 | False | – | – | –
c1ccc(Cc2nnc(Sc3ccnc(N4CCN(c5ccncc5)CC4)n3)n2CCN2CCOCC2)cc1 [GSK547511A] | 0.13 | 0.94 | 1.36 | 1.02 | False | >50 | – | –
CN1CCN(c2cc(-c3ccc(F)cc3)nc(-c3ccncc3)n2)CC1 [GSK276001A] | 0.63 | 1.04 | 1.11 | 0.65 | False | 50 | 0.15 | 7.4
CCc1c(C)nc(-n2nc(C)cc2NC(=O)c2ccccc2SC)[nH]c1=O [GSK1783710A] | 0.67 | 1.00 | 1.11 | 0.94 | False | >50 | – | –
COc1ccc2cc(C(=O)Nc3ccc(C4CCN(C)CC4)cc3)sc2c1 [GSK1635139A] | 1.00 | 1.28 | 1.15 | 0.78 | False | 50 | 0.19 | 9.5
O=C(NCc1ccccc1F)N1CCN(Cc2ccc(Br)s2)CC1 [GSK1758774A] | 1.00 | 1.13 | 1.05 | 0.85 | False | 5.55 | 1.19 | 6.6
CCOc1ccc(OCc2ccc(C(=O)NNC(=O)c3ccc([N+](=O)[O-])o3)cc2)cc1 [GSK426032A] | 0.00 | 0.94 | 1.27 | 1.02 | False | >50 | – | –
Cc1cccc(-c2nc(Nc3ccncn3)c3sccc3n2)n1 [GSK153890A] | 0.00 | 1.21 | 1.17 | 1.05 | False | – | – | –
O=C(Cc1ccc(F)cc1)Nc1nc(-c2ccccn2)cs1 [GSK1570606A] | 0.00 | 1.21 | 1.05 | 0.06 | False | >50 | – | –
NC(=O)c1cc(-c2ccsc2)ccc1OCCOc1ccccc1 [GSK1365028A] | 0.00 | 1.14 | 1.42 | 0.94 | False | >50 | – | –
O=C(CCCSc1ccccc1)NNC(=O)c1cccs1 [GSK2157753A] | 0.11 | 1.00 | 1.67 | 1.04 | False | >50 | – | –
c1ccc(-c2nnc(Sc3ccnc(N4CCN(c5ccncc5)CC4)n3)n2CCCN2CCOCC2)nc1 [GSK547543A] | 0.00 | 0.99 | 1.22 | 0.87 | False | – | – | –
N=C(N)c1ccc(CCN2CCC(c3nc(COCC(F)(F)F)c(-c4ccc(F)cc4)o3)CC2)cc1.O=C(O)C(F)(F)F.O=C(O)C(F)(F)F [GI247341A] | 0.00 | 1.18 | 1.21 | 0.77 | False | – | – | –
O=C(OCc1c(F)cccc1Cl)c1ccc(-n2ncc(Cl)c(Cl)c2=O)cc1 [GSK1826825A] | 0.13 | 0.95 | 1.71 | 1.04 | False | – | – | –
CCC(Sc1nc2ccccc2o1)C(=O)Nc1nccs1 (centres unmarked) [GSK829969A] | 0.00 | 1.58 | 1.56 | 0.94 | True | – | – | –
CN(C)S(=O)(=O)c1ccc(C(=O)Nc2nnc(-c3ccc(Cl)s3)o2)cc1 [GSK991960A] | 0.15 | 1.06 | 1.20 | 0.90 | False | – | – | –
CC(C)(C)C(=O)CC1(O)Oc2ccccc2N=C1C=C(O)C(C)(C)C (centres unmarked) [GSK262906A] | 1.00 | 1.04 | 1.68 | 0.89 | False | – | – | –
O=C(Nc1nnc(-c2ccc(Cl)s2)o1)c1ccc(Cl)s1 [GSK316438A] | 0.09 | 1.32 | 1.30 | 0.70 | False | >50 | – | –
O=C(NC1=NCCS1)c1sc2cc(F)ccc2c1Cl [GSK1107112A] | 0.10 | 0.90 | 1.29 | 0.0367 | False | – | – | –
